{
  "source": "patent US20070287672A1",
  "about": "“Macromolecular Gsh-Activiated Glyoxylase I Inhibitors” (priority 2004, published 2007)",
  "key": {"[1]": {"tested_on": "murine leukemia L1210 cells", "conditions": "cited from earlier work; for IC50: diethyl ester prodrugs, after 72 hours of incubation, read-out: IC50, growth inhibition of L1210 cells in culture"}, "bovine liver GlxII": {"target": "T1, bovine liver GlxII (Bos taurus, UniProt Q3B7M2)", "T1 construct": "host or cells: bovine liver", "conditions": "cited from earlier work"}, "HT29 human colon tumors": {"tested_on": "HT29 human colon tumors", "conditions": "intravenous administration, tumor-bearing mice; cited from earlier work"}, "B16 melanotic melanoma": {"tested_on": "B16 melanotic melanoma", "conditions": "intravenous administration, tumor-bearing mice; cited from earlier work"}, "PC3 prostate tumors": {"tested_on": "PC3 prostate tumors", "conditions": "intravenous administration, tumor-bearing mice; cited from earlier work"}, "[2]": {"conditions": "intravenous administration, tumor-bearing mice; cited from earlier work"}, "[3]": {"conditions": "potassium phosphate buffer, 25° C., cited from earlier work"}, "[4]": {"tested_on": "Murine B16 melanotic melanoma", "test": "In vitro cytotoxicity, growth inhibition of B16 melanotic melanoma", "format": "cell-based", "conditions": "72 hours", "method": "Murine B16 melanotic melanoma was obtained from the DCT Tumor Repository (NCI-Cancer Research and Development Center, Frederick, Md.) and was maintained in RPMI 1640 medium containing L-glutamate (Gibco BRL, Gaithersburg, Md.), supplemented with 10% heat-inactivated fetal calf serum and gentamycin (10 μg/mL), under 37° C. humidified air containing 5% CO2. Under these conditions B16 cells have a doubling time of about 26 hours. For the toxicity studies, cells in logarithmic growth were introduced into 24 well plates at a density of 2×10^4 cells/ml in the absence and presence of drug spanning the IC50 values.\nAfter 72 hours, the cells were washed with Hank's balanced salt solution without Ca^2+, treated with trypsin for 10 minutes at 37° C., concentrated by centrifugation and cell densities determined with a Coulter Counter. Cell viabilities were determined by the trypan blue exclusion method (Kaltenbach et al, Exp. Cell. Res. 15:112-117 (1958)).\nReported IC50 values (mean ±standard deviation of triplicate determinations carried out in three separate assays on different days) were calculated using the Hill equation and the program ADAPT (D'Argenio and Schumitzky, Comput. Methods Programs Biomed. 9:115-134 (1979))."}, "[5]": {"tested_on": "several different tumor cell lines", "conditions": "in vitro; cited from earlier work"}},
  "data": [
    {"smiles": "CCOC(=O)CNC(=O)C(CSC(=O)N(O)c1ccc(Br)cc1)NC(=O)CCC(N)C(=O)OCC", "note": "(centres unmarked) [BHG(Et)2]", "values": [
      {"measurement": "IC50", "setting": "[1]", "result": 16, "unit": "µM"}
    ]},
    {"smiles": "N[C@@H](CCC(=O)N[C@@H](CSC(=O)N(O)c1ccc(Br)cc1)C(=O)NCC(=O)O)C(=O)O", "note": "[BHG, S—(N-p-bromophenyl-N-hydroxycarbamoyl)glutathione]", "values": [
      {"measurement": "substrate for bovine liver GlxII", "setting": "bovine liver GlxII", "result": "substrates for bovine liver GlxII"}
    ]},
    {"smiles": "CCOC(=O)CNC(=O)[C@H](CSC(=O)N(O)c1ccc(Cl)cc1)NC(=O)CC[C@H](N)C(=O)OCC", "note": "[CHG(Et)2]", "values": [
      {"measurement": "inhibition of tumor growth, HT29 human colon tumors", "setting": "HT29 human colon tumors", "result": "inhibits the growth"},
      {"measurement": "inhibition of tumor growth, B16 melanotic melanoma", "setting": "B16 melanotic melanoma", "result": "inhibits the growth"},
      {"measurement": "inhibition of tumor growth, PC3 prostate tumors", "setting": "PC3 prostate tumors", "result": "inhibits the growth"},
      {"measurement": "side effects in short term efficacy studies", "setting": "[2]", "result": "did not detect any significant side effects"},
      {"measurement": "tissue distribution of the prodrug", "setting": "[2]", "result": "appearance of the prodrug in all major organs"},
      {"measurement": "IC50", "setting": "[1]", "result": 5, "unit": "µM"},
      {"measurement": "toxicity to L1210 cells versus normal splenic lymphocytes", "setting": "[1]; in culture", "result": "significantly more toxic to murine leukemia L1210 cells than to normal splenic lymphocytes"}
    ]},
    {"smiles": "N[C@@H](CCC(=O)N[C@@H](CSC(=O)N(O)c1ccc(Cl)cc1)C(=O)NCC(=O)O)C(=O)O", "note": "[CHG, S—(N-p-chlorophenyl-N-hydroxycarbamoyl)glutathione]", "values": [
      {"measurement": "substrate for bovine liver GlxII", "setting": "bovine liver GlxII", "result": "substrates for bovine liver GlxII"}
    ]},
    {"smiles": "CC[S+]([O-])C(=O)N(O)c1ccc(Cl)cc1", "note": "(centres unmarked) [Compound 2, S—(N-4-chlorophenyl-N-hydroxycarbamoyl)ethyl sulfoxide]", "values": [
      {"measurement": "rate constant k for reaction of GSH with the simple sulfoxide", "setting": "[3]; 0.1 M (pH 7.5)", "result": "30.7 ± 1.2", "unit": "M⁻¹ s⁻¹"},
      {"measurement": "IC50 value relative to that of HPMA-8-sulfoxide (P1), fold lower", "setting": "[4]", "result": "five to ten-fold lower"},
      {"measurement": "cytostatic and cytotoxic activity on tumor cell lines", "setting": "[5]", "result": "cytostatic and cytotoxic"}
    ]},
    {"smiles": "CCC[S+]([O-])C(=O)N(O)c1ccc(Cl)cc1", "note": "(centres unmarked) [Compound 2a, S—(N-4-Chlorophenyl-N-hydroxycarbamoyl)propyl sulfoxide]", "values": [
      {"measurement": "IC50 value relative to that of HPMA-8-sulfoxide (P1), fold lower", "setting": "[4]", "result": "five to ten-fold lower"}
    ]},
    {"smiles": "CCCC[S+]([O-])C(=O)N(O)c1ccc(Cl)cc1", "note": "(centres unmarked) [Compound 2b, S—(N-4-Chlorophenyl-N-hydroxycarbamoyl)butyl sulfoxide]", "values": [
      {"measurement": "IC50 value relative to that of HPMA-8-sulfoxide (P1), fold lower", "setting": "[4]", "result": "five to ten-fold lower"}
    ]},
    {"smiles": "C/C=C/C(=O)OCC1=CCCCC1=O", "note": "[Compound 3, 2-crotonyloxymethyl-2-cyclohexenone]", "values": [
      {"measurement": "rate constant k for reaction of GSH with the crotonate ester", "setting": "[3]; 0.1 M (pH 6.5)", "result": "1.13 ± 0.017", "unit": "M⁻¹ s⁻¹"},
      {"measurement": "IC50 value relative to that of HPMA-7 (P4), fold lower", "setting": "[4]", "result": "over 7000 fold"}
    ]},
    {"smiles": "CCOC(=O)CNC(=O)C(CSC(=O)N(O)c1ccccc1)NC(=O)CCC(N)C(=O)OCC", "note": "(centres unmarked) [PHG(Et)2]", "values": [
      {"measurement": "IC50", "setting": "[1]", "result": 63, "unit": "µM"}
    ]},
    {"smiles": "CN(O)C(=O)SC[C@H](NC(=O)CC[C@H](N)C(=O)O)C(=O)NCC(=O)O", "note": "[S—(N-methyl-N-hydroxycarbamoyl)glutathione]", "values": [
      {"measurement": "substrate for bovine liver GlxII", "setting": "bovine liver GlxII", "result": "substrates for bovine liver GlxII"}
    ]},
    {"smiles": "N[C@@H](CCC(=O)N[C@@H](CSC(=O)N(O)c1ccccc1)C(=O)NCC(=O)O)C(=O)O", "note": "[S—(N-phenyl-N-hydroxycarbamoyl)glutathione]", "values": [
      {"measurement": "substrate for bovine liver GlxII", "setting": "bovine liver GlxII", "result": "substrates for bovine liver GlxII"}
    ]}
  ]
}
